Patent US7902422B2 (priority 2004, dated 2011)
Where a SMILES comes first, the peptide text is derived from it. [ ]: non-standard residue; d: D form. The star is where a group is joined. Nva = CCC[C@H](N)C(=O)O; Cbz = O=C(OCc1ccccc1)*

Legend:
[1] = system: EIN3 protein; assay: EIN3 protein immunoblot, etiolated wild-type seedlings; type: in vivo, Arabidopsis
Experimental: With the exception of eto2 in Landsberg erecta (Ler) background, the ecotype Columbia (Col-0) was the parent strain for all mutant and transgenic lines described herein. Arabidopsis seeds were surface-sterilized and plated on the surface of MS medium (4.3 g MS salts, 10 g sucrose, pH 5.7, 8 g bactoagar per liter). After 3-4 days in the light at 4° C., the plates were wrapped in foil and kept in a 24° C. incubator before the phenotypes of seedlings were analyzed. For propagation, seedlings from plates were transferred to soil (Promix-HP) and grown to maturity at 22° C. under a 16 hr light/8 hr dark cycle.
(§1) Ethylene treatment of Arabidopsis seedlings grown on plates was performed in containers by flowing through hydrocarbon-free air supplemented with 10 ppm (parts per million) ethylene or were treated with hydrocarbon-free air alone (Kieber et al., Cell 72, 427-441, 1993). For drug treatments, Arabidopsis suspension cell cultures were treated with MG132 (50 μM), MG115 (50 μM), Pefabloc SC (100 μM) or DMSO (0.1%) for a time course study. Alternatively, etiolated seedlings were germinated for three days on a disc of Whatman paper resting on the surface of MS medium. MG132 (50 μM), MG115 (50 μM), Pefabloc SC (100 μM) or DMSO (0.1%) was added to the paper discs for 4 hr. Cycloheximide (100 μM) was added to the paper discs and ethylene or air was applied for different amounts of time.

[2] = system: EIN3-GFP fusion protein; assay: EIN3-GFP nuclear accumulation, fluorescence microscopy of transgenic seedlings; type: in vivo, Arabidopsis; settings: for abundance of EIN3-GFP in the nucleus: hypocotyl and root cells, ACC 50 μM or MG132 50 μM, absence of ethylene for MG132
Experimental: Transgenic seedlings that expressed a functional EIN3-GFP fusion protein were mounted on glass slides using PBS as a mounting medium. All images were collected on a fluorescence microscope (Olympus BX60) and the color of the images was artificially added in Photoshop 5.0 (Adobe Systems). For the time course experiment, after the first cell image was taken, 50 μM of ACC or MG132 was applied to the slide and the same cell was followed for 4 hr.

[3] = system: EIN3 protein; assay: EIN3 protein immunoblot, Arabidopsis suspension cell cultures; type: cell-based; settings: suspension cells; MG132 50 μM (after 30 min), MG115 50 μM, Pefabloc SC 100 μM
Experimental: as §1

[4] = system: transgenically overexpressed EIN3 protein; type: in vivo, Arabidopsis; settings: for abundance of transgenically overexpressed EIN3 protein: EIN3ox seedlings grown in air, MG132 50 μM, MG115 50 μM, Pefabloc SC 100 μM, 4 hr
Experimental: as §1

[5] = system: EBF1 gene; settings: in vivo
Experimental: (§2) (A) Alignment of EBF1 (SEQ ID NO: 2) and EBF2 (SEQ ID NO: 4) amino acid sequences generated with ClustalW program. Identical amino acid residues in the two proteins are highlighted with black boxes. […] (B) Alignment of F-box motif sequences. […] Identities and similarities among the different proteins are highlighted by black and gray, respectively. Consensus residues are denoted by asterisks. […] Etiolated wild-type seedlings were treated with air (air) or ethylene (C2H4) for 4 hr before RNA was extracted for analysis. Each treatment was performed in replicate. The means of normalized intensity were used to indicate relative expression levels.

[6] = system: EBF2 gene; settings: in vivo
Experimental: as §2

[7] = system: EIN3-GFP fusion protein; settings: immunoblot, ethylene treatment
Experimental: Protein samples were prepared by homogenizing the powdered tissues in 2×SDS-PAGE sample buffer and boiling the homogenate for 5 min. After centrifugation, the protein extracts were fractionated by 4-12% gradient Tris-Glycine Novex precast gels (Invitrogen), blotted onto a nitrocellulose filter. The blot was probed first with anti-EIN3 antibody, and was subsequently stripped with 0.2 N glycine (pH 2.5) for 3 times and re-probed with either anti-CRY1 antibody (Lin et al., Proc Natl Acad Sci 92, 8423-8427, 1995) or anti-SUB1 antibody (Guo et al., Science 291, 487-490, 2001)
The triple response phenotype was scored in T2 seedlings originated from individual Kanamycin-resistant T1 plants. Transgenic seedlings that expressed a functional EIN3-GFP fusion protein were mounted on glass slides using PBS as a mounting medium. […] For the time course experiment, after the first cell image was taken, 50 μM of ACC or MG132 was applied to the slide and the same cell was followed for 4 hr.

## NC1(C(=O)O)CC1 [ACC, aminocyclopropane-1-carboxylic acid]
[1]; wild-type seedlings on medium with high concentrations of ACC (10 and 50 μM), 3 days
  levels of EIN3 protein: dramatically elevated
[2]; 50 μM ACC, time course, same cell followed for 4 hr
  time of ACC treatment after which EIN3-GFP accumulated in the nucleus: 1 h
[2]
  abundance of EIN3-GFP in the nucleus: substantially enhanced

## CCC[C@@H](C=O)NC(=O)[C@H](CC(C)C)NC(=O)[C@H](CC(C)C)NC(=O)OCc1ccccc1 [MG115] (Cbz-Leu-Leu-[Nva]-aldehyde)
[3]
  levels of EIN3 protein (EIN3 abundance): enhanced EIN3 abundance
[4]
  abundance of transgenically overexpressed EIN3 protein: similarly induced

## CC(C)C[C@@H](C=O)NC(=O)[C@H](CC(C)C)NC(=O)[C@H](CC(C)C)NC(=O)OCc1ccccc1 [MG132] (Cbz-Leu-Leu-Leu-aldehyde)
[3]
  levels of EIN3 protein (EIN3 abundance): markedly increased
[4]
  abundance of transgenically overexpressed EIN3 protein: similarly induced
[2]
  abundance of EIN3-GFP in the nucleus: rapid nuclear accumulation

## Cl.NCCc1ccc(S(=O)(=O)F)cc1 [Pefabloc]
[3]
  levels of EIN3 protein (EIN3 abundance): no effect
[4]
  abundance of transgenically overexpressed EIN3 protein: not

## C=C [ethylene, Ethylene]
[1]; ethylene-pretreated (2 hr) wild-type seedlings, 100 μM cycloheximide, kept in ethylene
  levels of EIN3 protein with de novo translation blocked: remained constitutively high
[1]; wild-type plants, ethylene gas 10 ppm, after 1 hr
  level of EIN3 protein: markedly increased
[4]; EIN3ox plants, ethylene gas 10 ppm
  levels of transgenically overexpressed EIN3 protein: up-regulated
[5]
  RNA level of EBF1 gene: induced
[6]
  RNA level of EBF2 gene: induced
[7]
  level of EIN3-GFP fusion protein: dramatically increased

## O=[N+]([O-])[O-].[Ag+] [silver ion, AgNO3]
[1]; wild-type seedlings on MS medium with 100 μM AgNO3 for 3 days, ethylene 4 hr
  ethylene-induced EIN3 accumulation: no longer induced by ethylene
